Values after ≈ are worked out from the molar mass of the structure shown.
Experiments:
Pseudomonas aeruginosa [1] = assay: Antimicrobial activity against Pseudomonas aeruginosa PS10 with PFGE phenotype 1A expressing beta-lactamase KPC-2 obtained from blood of patient by agar dilution method; assay type: functional
Pseudomonas aeruginosa [2] = assay: Antimicrobial activity against Pseudomonas aeruginosa PS15A with PFGE phenotype 10A obtained from blood of patient by agar dilution method; assay type: functional
Pseudomonas aeruginosa [3] = assay: Antimicrobial activity against Pseudomonas aeruginosa PS37 with PFGE phenotype 11D obtained from sputum of patient by agar dilution method; assay type: functional
Pseudomonas aeruginosa [4] = assay: Antimicrobial activity against Pseudomonas aeruginosa PS7A with PFGE phenotype 11D obtained from urine of ICU patient by agar dilution method; assay type: functional
Pseudomonas aeruginosa [5] = assay: Antimicrobial activity against Pseudomonas aeruginosa PS19A with PFGE phenotype 11C obtained from urine of patient by agar dilution method; assay type: functional
Pseudomonas aeruginosa [6] = assay: Antimicrobial activity against Pseudomonas aeruginosa PS20A with PFGE phenotype 11D obtained from skin of patient by agar dilution method; assay type: functional
Pseudomonas aeruginosa [7] = assay: Antimicrobial activity against Pseudomonas aeruginosa PS25 with PFGE phenotype 1A obtained from sputum of patient by agar dilution method; assay type: functional
Pseudomonas aeruginosa [8] = assay: Antimicrobial activity against Pseudomonas aeruginosa PS6A with PFGE phenotype 11A obtained from sputum of ICU patient by agar dilution method; assay type: functional
Pseudomonas aeruginosa [9] = assay: Antimicrobial activity against Pseudomonas aeruginosa PS17B with PFGE phenotype 11D expressing beta-lactamase KPC-2 obtained from blood of ICU patient by agar dilution method; assay type: functional
Pseudomonas aeruginosa [10] = assay: Antimicrobial activity against Pseudomonas aeruginosa PS1 with PFGE phenotype 9C negative for blaIMP, blaVIM and blaKPC obtained from sputum of patient by agar dilution method
Pseudomonas aeruginosa [11] = assay: Antimicrobial activity against Pseudomonas aeruginosa PS21 with PFGE phenotype 11F obtained from skin of patient by agar dilution method; assay type: functional
Pseudomonas aeruginosa [12] = assay: Antimicrobial activity against Pseudomonas aeruginosa PS13 with PFGE phenotype 11E obtained from sputum of ICU patient by agar dilution method; assay type: functional
Pseudomonas aeruginosa [13] = assay: Antimicrobial activity against Pseudomonas aeruginosa PS44 with PFGE phenotype 13 expressing beta-lactamase IMP-18 obtained from blood of patient by agar dilution method; assay type: functional
Pseudomonas aeruginosa [14] = assay: Antimicrobial activity against Pseudomonas aeruginosa PS29 with PFGE phenotype 11D obtained from sputum of patient by agar dilution method; assay type: functional
Pseudomonas aeruginosa [15] = assay: Antimicrobial activity against Pseudomonas aeruginosa PS4 with PFGE phenotype 9B expressing beta-lactamase IMP-18 obtained from sputum of patient by agar dilution method; assay type: functional
Pseudomonas aeruginosa [16] = assay: Antimicrobial activity against Pseudomonas aeruginosa PS41 with PFGE phenotype 11D obtained from urine of patient by agar dilution method; assay type: functional
Pseudomonas aeruginosa [17] = assay: Antimicrobial activity against Pseudomonas aeruginosa PS3 with PFGE phenotype 12 obtained from sputum of ICU patient by agar dilution method; assay type: functional
Pseudomonas aeruginosa [18] = assay: Antimicrobial activity against Pseudomonas aeruginosa PS18A with PFGE phenotype 11D obtained from CSF of ICU patient by agar dilution method; assay type: functional
Pseudomonas aeruginosa [19] = assay: Antimicrobial activity against Pseudomonas aeruginosa PS43 with PFGE phenotype 2 expressing beta-lactamase KPC-2, OXA-2 obtained from skin of ICU patient by agar dilution method; assay type: functional
Pseudomonas aeruginosa [20] = assay: Antimicrobial activity against Pseudomonas aeruginosa PS33 with PFGE phenotype 9A obtained from blood of patient by agar dilution method; assay type: functional
Pseudomonas aeruginosa [21] = assay: Antimicrobial activity against Pseudomonas aeruginosa PS14 with PFGE phenotype 10C obtained from sputum of ICU patient by agar dilution method; assay type: functional
Pseudomonas aeruginosa [22] = assay: Antimicrobial activity against Pseudomonas aeruginosa PS22 with PFGE phenotype 3A obtained from urine of patient by agar dilution method; assay type: functional
Pseudomonas aeruginosa [23] = assay: Antimicrobial activity against Pseudomonas aeruginosa PS35 with PFGE phenotype 11A obtained from urine of patient by agar dilution method; assay type: functional
Pseudomonas aeruginosa [24] = assay: Antimicrobial activity against Pseudomonas aeruginosa PS40 with PFGE phenotype 5 expressing beta-lactamase KPC-2, OXA-2 obtained from urine of patient by agar dilution method; assay type: functional
Pseudomonas aeruginosa [25] = assay: Antimicrobial activity against Pseudomonas aeruginosa PS23 with PFGE phenotype 4A expressing beta-lactamase KPC-2 obtained from blood of patient by agar dilution method; assay type: functional
Pseudomonas aeruginosa [26] = assay: Antimicrobial activity against Pseudomonas aeruginosa PS31 with PFGE phenotype 11B obtained from skin of patient by agar dilution method; assay type: functional
Pseudomonas aeruginosa [27] = assay: Antimicrobial activity against Pseudomonas aeruginosa PS28 with PFGE phenotype 6 expressing beta-lactamase KPC-5 obtained from skin of patient by agar dilution method; assay type: functional
Pseudomonas aeruginosa [28] = assay: Antimicrobial activity against Pseudomonas aeruginosa PS26 with PFGE phenotype 3A expressing beta-lactamase OXA-2 obtained from sputum of ICU patient by agar dilution method; assay type: functional
Pseudomonas aeruginosa [29] = assay: Antimicrobial activity against Pseudomonas aeruginosa PS34 with PFGE phenotype 4A obtained from blood of ICU patient by agar dilution method; assay type: functional
Pseudomonas aeruginosa [30] = assay: Antimicrobial activity against OprD overproducing Pseudomonas aeruginosa PAO1 expressing mexA and oprD by agar dilution method; assay type: functional
Pseudomonas aeruginosa [31] = assay: Antimicrobial activity against Pseudomonas aeruginosa PS36 with PFGE phenotype 11B obtained from urine of patient by agar dilution method; assay type: functional
Pseudomonas aeruginosa [32] = assay: Antimicrobial activity against Pseudomonas aeruginosa PS9 with PFGE phenotype 3B obtained from sputum of patient by agar dilution method; assay type: functional
Pseudomonas aeruginosa [33] = assay: Antimicrobial activity against Pseudomonas aeruginosa PS30 with PFGE phenotype 11D obtained from sputum of patient by agar dilution method; assay type: functional
Pseudomonas aeruginosa [34] = assay: Antimicrobial activity against Pseudomonas aeruginosa PS5 with PFGE phenotype 7A expressing beta-lactamase KPC-2 obtained from sputum of ICU patient by agar dilution method; assay type: functional
Pseudomonas aeruginosa [35] = assay: Antimicrobial activity against Pseudomonas aeruginosa PS12 with PFGE phenotype 7B obtained from sputum of patient by agar dilution method; assay type: functional
Pseudomonas aeruginosa [36] = assay: Antimicrobial activity against Pseudomonas aeruginosa PS39 with PFGE phenotype 8 expressing beta-lactamase IMP-18 obtained from urine of patient by agar dilution method; assay type: functional
Pseudomonas aeruginosa [37] = assay: Antimicrobial activity against Pseudomonas aeruginosa PS2 with PFGE phenotype 10B obtained from urine of ICU patient by agar dilution method; assay type: functional
Pseudomonas aeruginosa [38] = assay: Antimicrobial activity against Pseudomonas aeruginosa PS11A with PFGE phenotype 7A obtained from sputum of ICU patient by agar dilution method; assay type: functional

Structure (SMILES) | MIC (Pseudomonas aeruginosa [1]) [µg/mL] | MIC (Pseudomonas aeruginosa [2]) [µg/mL] | MIC (Pseudomonas aeruginosa [3]) [µg/mL] | MIC (Pseudomonas aeruginosa [4]) [µg/mL] | MIC (Pseudomonas aeruginosa [5]) [µg/mL] | MIC (Pseudomonas aeruginosa [6]) [µg/mL] | MIC (Pseudomonas aeruginosa [7]) [µg/mL] | MIC (Pseudomonas aeruginosa [8]) [µg/mL] | MIC (Pseudomonas aeruginosa [10]) [µg/mL] | MIC (Pseudomonas aeruginosa [13]) [µg/mL] | MIC (Pseudomonas aeruginosa [17]) [µg/mL] | MIC (Pseudomonas aeruginosa [19]) [µg/mL] | MIC (Pseudomonas aeruginosa [20]) [µg/mL] | MIC (Pseudomonas aeruginosa [21]) [µg/mL] | MIC (Pseudomonas aeruginosa [22]) [µg/mL] | MIC (Pseudomonas aeruginosa [28]) [µg/mL] | MIC (Pseudomonas aeruginosa [30]) [µg/mL] | MIC (Pseudomonas aeruginosa [32]) [µg/mL] | MIC (Pseudomonas aeruginosa [35]) [µg/mL] | MIC (Pseudomonas aeruginosa [37]) [µg/mL] | also measured
C[C@@H](O)[C@H]1C(=O)N2C(C(=O)O)=C(SCCNC=N)C[C@H]12 [IMIPENEM ANHYDROUS] | > 64 | 32 (≈ 107 µM) | > 64 | > 64 | > 64 | > 64 | > 64 | > 64 | 16 (≈ 53.4 µM) | 64 (≈ 214 µM) | 16 (≈ 53.4 µM) | 16 (≈ 53.4 µM) | 64 (≈ 214 µM) | 64 (≈ 214 µM) | 8 (≈ 26.7 µM) | 8 (≈ 26.7 µM) | 1 (≈ 3.34 µM) | 8 (≈ 26.7 µM) | > 64 | 64 (≈ 214 µM) | MIC (Pseudomonas aeruginosa [9]): > 64 µg/mL; MIC (Pseudomonas aeruginosa [11]): > 64 µg/mL; MIC (Pseudomonas aeruginosa [12]): > 64 µg/mL; MIC (Pseudomonas aeruginosa [14]): > 64 µg/mL; MIC (Pseudomonas aeruginosa [15]): > 64 µg/mL; MIC (Pseudomonas aeruginosa [16]): > 64 µg/mL; MIC (Pseudomonas aeruginosa [18]): > 64 µg/mL; MIC (Pseudomonas aeruginosa [23]): > 64 µg/mL; MIC (Pseudomonas aeruginosa [24]): > 64 µg/mL; MIC (Pseudomonas aeruginosa [25]): > 64 µg/mL; MIC (Pseudomonas aeruginosa [26]): > 64 µg/mL; MIC (Pseudomonas aeruginosa [27]): > 64 µg/mL; MIC (Pseudomonas aeruginosa [29]): > 64 µg/mL; MIC (Pseudomonas aeruginosa [31]): > 64 µg/mL; MIC (Pseudomonas aeruginosa [33]): > 64 µg/mL; MIC (Pseudomonas aeruginosa [34]): > 64 µg/mL; MIC (Pseudomonas aeruginosa [36]): > 64 µg/mL; MIC (Pseudomonas aeruginosa [38]): > 64 µg/mL
CC(C)(O/N=C(\C(=O)N[C@@H]1C(=O)N2C(C(=O)[O-])=C(C[n+]3ccccc3)CS[C@H]12)c1csc(N)n1)C(=O)O [CEFTAZIDIME] | 64 (≈ 117 µM) | 128 (≈ 234 µM) | 64 (≈ 117 µM) | 64 (≈ 117 µM) | 64 (≈ 117 µM) | 64 (≈ 117 µM) | 64 (≈ 117 µM) | 32 (≈ 58.5 µM) | 2 (≈ 3.66 µM) | > 128 | 4 (≈ 7.32 µM) | 16 (≈ 29.3 µM) | > 128 | 64 (≈ 117 µM) | 16 (≈ 29.3 µM) | 8 (≈ 14.6 µM) | 1 (≈ 1.83 µM) | 8 (≈ 14.6 µM) | 64 (≈ 117 µM) | 128 (≈ 234 µM) | MIC (Pseudomonas aeruginosa [9]): 64 µg/mL (≈ 117 µM); MIC (Pseudomonas aeruginosa [11]): 64 µg/mL (≈ 117 µM); MIC (Pseudomonas aeruginosa [12]): 64 µg/mL (≈ 117 µM); MIC (Pseudomonas aeruginosa [14]): 64 µg/mL (≈ 117 µM); MIC (Pseudomonas aeruginosa [15]): > 128 µg/mL; MIC (Pseudomonas aeruginosa [16]): 64 µg/mL (≈ 117 µM); MIC (Pseudomonas aeruginosa [18]): 32 µg/mL (≈ 58.5 µM); MIC (Pseudomonas aeruginosa [23]): 64 µg/mL (≈ 117 µM); MIC (Pseudomonas aeruginosa [24]): 32 µg/mL (≈ 58.5 µM); MIC (Pseudomonas aeruginosa [25]): 128 µg/mL (≈ 234 µM); MIC (Pseudomonas aeruginosa [26]): 64 µg/mL (≈ 117 µM); MIC (Pseudomonas aeruginosa [27]): 128 µg/mL (≈ 234 µM); MIC (Pseudomonas aeruginosa [29]): 64 µg/mL (≈ 117 µM); MIC (Pseudomonas aeruginosa [31]): 64 µg/mL (≈ 117 µM); MIC (Pseudomonas aeruginosa [33]): 64 µg/mL (≈ 117 µM); MIC (Pseudomonas aeruginosa [34]): 64 µg/mL (≈ 117 µM); MIC (Pseudomonas aeruginosa [36]): > 128 µg/mL; MIC (Pseudomonas aeruginosa [38]): 32 µg/mL (≈ 58.5 µM)
C[C@@H](O)[C@H]1C(=O)N2C(C(=O)O)=C(S[C@@H]3CN[C@H](C(=O)N(C)C)C3)[C@H](C)[C@H]12 [MEROPENEM] |  | 16 (≈ 41.7 µM) |  |  |  |  |  |  | 8 (≈ 20.9 µM) | 32 (≈ 83.4 µM) | 8 (≈ 20.9 µM) | 32 (≈ 83.4 µM) | 32 (≈ 83.4 µM) | 16 (≈ 41.7 µM) | 16 (≈ 41.7 µM) | 16 (≈ 41.7 µM) | 0.5 (≈ 1.3 µM) | 16 (≈ 41.7 µM) | 32 (≈ 83.4 µM) | 16 (≈ 41.7 µM) | 

— ChEMBL document CHEMBL1629674, “Surveillance of carbapenem-resistant Pseudomonas aeruginosa isolates from Puerto Rican Medical Center Hospitals: dissemination of KPC and IMP-18 beta-lactamases” (2009)
